Source: ChEMBL document CHEMBL1201862, “PubChem BioAssay data set” (2004)
Calls of active or inactive are those of the source.

Key:
[1] = molecular target: T1, Endoribonuclease toxin MazF (Escherichia coli K-12, UniProt P0AE70); experiment: MazF toxin RNase activators, dose response, biochemical, fluorescence, single-stranded RNA substrate, uHTS hits (AID 588481); format: functional
T1 sequence (P0AE70 whole entry): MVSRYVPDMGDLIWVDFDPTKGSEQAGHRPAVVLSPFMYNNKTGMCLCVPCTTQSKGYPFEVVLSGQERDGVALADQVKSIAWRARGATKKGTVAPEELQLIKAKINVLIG

[2] = molecular target: UDP-galactopyranose mutase (Mycobacterium tuberculosis, UniProt P9WIQ1); experiment: Inhibitors of Mycobacterium tuberculosis UDP-galactopyranose mutase (UGM) enzyme Measured in Biochemical System Using Plate Reader - 2105-02_Inhibitor_Dose_CherryPick_Activity. [Related pubchem assays (depositor defined):AID504439]
Chain of UDP-galactopyranose mutase (P9WIQ1 whole entry): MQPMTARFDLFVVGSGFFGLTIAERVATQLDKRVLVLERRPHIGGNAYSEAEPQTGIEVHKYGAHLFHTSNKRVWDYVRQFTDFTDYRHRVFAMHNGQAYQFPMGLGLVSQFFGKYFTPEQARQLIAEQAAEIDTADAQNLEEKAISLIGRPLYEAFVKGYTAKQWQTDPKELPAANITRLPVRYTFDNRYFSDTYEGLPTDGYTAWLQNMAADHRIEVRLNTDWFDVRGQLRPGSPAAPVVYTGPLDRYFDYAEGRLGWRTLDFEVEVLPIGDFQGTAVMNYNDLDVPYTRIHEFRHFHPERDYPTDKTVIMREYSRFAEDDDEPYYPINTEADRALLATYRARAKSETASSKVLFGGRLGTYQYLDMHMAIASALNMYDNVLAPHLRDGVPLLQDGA

[3] = molecular target: T1, Endoribonuclease toxin MazF; experiment: fluorescent RNA oligo signal without MazF, dose response, counter-screen for MazEF activator project, biochemical, fluorescence, single-stranded RNase substrate (AID 588502); format: functional
[4] = molecular target: Bifunctional protein GlmU (Mycobacterium tuberculosis, UniProt P9WMN3); experiment: Inhibitors of Mycobacterial Glucosamine-1-phosphate acetyl transferase (GlmU). Secondary screen.; design: species or system Mycobacterium tuberculosis H37Rv
Chain of Bifunctional protein GlmU (P9WMN3 whole entry): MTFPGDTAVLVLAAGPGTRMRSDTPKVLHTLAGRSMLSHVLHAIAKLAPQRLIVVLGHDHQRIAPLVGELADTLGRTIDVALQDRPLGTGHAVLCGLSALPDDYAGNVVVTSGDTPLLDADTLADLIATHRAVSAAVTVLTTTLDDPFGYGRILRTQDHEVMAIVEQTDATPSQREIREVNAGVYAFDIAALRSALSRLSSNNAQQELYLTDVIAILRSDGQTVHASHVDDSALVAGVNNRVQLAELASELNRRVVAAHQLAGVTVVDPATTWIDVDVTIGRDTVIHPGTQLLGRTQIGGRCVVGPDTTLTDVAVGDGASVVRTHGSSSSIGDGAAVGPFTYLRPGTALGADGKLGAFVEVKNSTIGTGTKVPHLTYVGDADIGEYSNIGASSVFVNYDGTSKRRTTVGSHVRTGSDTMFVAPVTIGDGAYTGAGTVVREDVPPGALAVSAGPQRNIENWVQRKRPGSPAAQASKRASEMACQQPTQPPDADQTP

[5] = molecular target: Neurotensin receptor type 1 (Homo sapiens, UniProt P30989); format: functional;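 further: Image-based confirmatory dose-response assay measuring agonist activity at NTR1; NTR1-expressing U2OS osteosarcoma cells imaged for beta-arrestin GFP spot formation; agonist potency where compounds increase beta-arrestin recruitment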
Chain of Neurotensin receptor type 1 (P30989 whole entry): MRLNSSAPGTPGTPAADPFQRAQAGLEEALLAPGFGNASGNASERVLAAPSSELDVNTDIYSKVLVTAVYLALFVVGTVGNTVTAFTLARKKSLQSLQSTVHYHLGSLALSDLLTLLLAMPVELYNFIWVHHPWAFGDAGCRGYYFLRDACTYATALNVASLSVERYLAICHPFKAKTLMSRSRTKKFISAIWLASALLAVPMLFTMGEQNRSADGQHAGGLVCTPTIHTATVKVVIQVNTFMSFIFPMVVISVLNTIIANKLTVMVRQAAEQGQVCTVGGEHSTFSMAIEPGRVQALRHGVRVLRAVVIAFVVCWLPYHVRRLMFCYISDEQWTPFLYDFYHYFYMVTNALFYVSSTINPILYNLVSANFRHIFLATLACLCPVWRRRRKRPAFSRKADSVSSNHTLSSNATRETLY

[6] = molecular target: Lysine-specific demethylase 4C (Homo sapiens, UniProt Q9H3R0); experiment: GASC-1 (JMJD2C) histone demethylase inhibitors, dose response, biochemical, DELFIA europium, cherry-picked samples (AID 488835); format: functional
Chain of Lysine-specific demethylase 4C (Q9H3R0 whole entry): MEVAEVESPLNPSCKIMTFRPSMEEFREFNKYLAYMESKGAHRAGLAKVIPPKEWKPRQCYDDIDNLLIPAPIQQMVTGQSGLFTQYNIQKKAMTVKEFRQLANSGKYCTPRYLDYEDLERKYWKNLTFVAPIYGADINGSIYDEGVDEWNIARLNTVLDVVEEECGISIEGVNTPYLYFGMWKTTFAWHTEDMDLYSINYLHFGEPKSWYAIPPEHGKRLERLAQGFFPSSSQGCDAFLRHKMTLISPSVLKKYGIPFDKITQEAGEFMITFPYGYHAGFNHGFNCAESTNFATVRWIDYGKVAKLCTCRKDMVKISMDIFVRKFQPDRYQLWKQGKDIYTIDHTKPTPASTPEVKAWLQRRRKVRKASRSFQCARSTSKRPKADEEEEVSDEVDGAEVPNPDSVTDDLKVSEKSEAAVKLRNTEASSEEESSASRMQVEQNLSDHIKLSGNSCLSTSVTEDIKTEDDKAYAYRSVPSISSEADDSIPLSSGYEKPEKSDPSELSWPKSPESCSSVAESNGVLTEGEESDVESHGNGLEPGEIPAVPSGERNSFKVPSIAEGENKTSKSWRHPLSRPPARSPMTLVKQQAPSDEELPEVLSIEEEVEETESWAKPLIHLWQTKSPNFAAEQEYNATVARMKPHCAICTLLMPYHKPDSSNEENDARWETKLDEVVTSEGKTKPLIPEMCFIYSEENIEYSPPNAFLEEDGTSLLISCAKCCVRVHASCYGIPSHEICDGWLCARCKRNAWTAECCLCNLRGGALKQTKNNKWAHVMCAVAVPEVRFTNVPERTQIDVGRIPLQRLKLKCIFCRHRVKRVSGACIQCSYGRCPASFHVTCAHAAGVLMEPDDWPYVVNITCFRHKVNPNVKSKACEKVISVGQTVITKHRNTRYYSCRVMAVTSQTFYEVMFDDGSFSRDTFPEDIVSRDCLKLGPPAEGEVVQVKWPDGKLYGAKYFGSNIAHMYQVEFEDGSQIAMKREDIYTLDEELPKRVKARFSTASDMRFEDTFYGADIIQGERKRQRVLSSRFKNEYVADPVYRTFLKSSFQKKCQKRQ

Genome polyprotein = Genome polyprotein (dengue virus type 2, UniProt P29990); experiment: Dengue-2 NS5 methyltransferase inhibitors, primary screen, biochemical, confirmation dose response (AID 588689); format: functional
Chain of Genome polyprotein (P29990 2492-3391 limits assumed): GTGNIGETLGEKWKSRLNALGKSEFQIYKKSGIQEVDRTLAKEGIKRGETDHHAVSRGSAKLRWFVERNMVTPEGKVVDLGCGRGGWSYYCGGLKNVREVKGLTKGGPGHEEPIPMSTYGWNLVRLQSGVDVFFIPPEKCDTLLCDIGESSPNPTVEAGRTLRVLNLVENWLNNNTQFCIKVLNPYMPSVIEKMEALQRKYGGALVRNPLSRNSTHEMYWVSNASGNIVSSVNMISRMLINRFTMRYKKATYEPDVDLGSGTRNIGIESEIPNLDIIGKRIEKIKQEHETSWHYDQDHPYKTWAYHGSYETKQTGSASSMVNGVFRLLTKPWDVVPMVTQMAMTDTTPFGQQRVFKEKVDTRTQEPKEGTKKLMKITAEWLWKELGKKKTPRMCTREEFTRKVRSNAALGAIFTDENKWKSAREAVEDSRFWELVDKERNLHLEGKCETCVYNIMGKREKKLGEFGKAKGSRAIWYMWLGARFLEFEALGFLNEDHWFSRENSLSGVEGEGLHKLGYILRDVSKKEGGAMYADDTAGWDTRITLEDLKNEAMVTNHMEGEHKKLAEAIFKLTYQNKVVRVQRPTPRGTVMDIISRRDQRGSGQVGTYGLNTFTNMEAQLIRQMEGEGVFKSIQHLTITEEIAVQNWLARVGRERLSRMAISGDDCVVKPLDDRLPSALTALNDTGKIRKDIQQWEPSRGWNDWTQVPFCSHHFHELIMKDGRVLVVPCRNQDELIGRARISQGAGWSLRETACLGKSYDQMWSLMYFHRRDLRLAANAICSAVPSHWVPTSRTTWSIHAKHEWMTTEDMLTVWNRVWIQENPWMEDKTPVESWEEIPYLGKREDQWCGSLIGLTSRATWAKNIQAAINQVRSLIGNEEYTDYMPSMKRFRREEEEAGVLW

[7] = molecular target: T2, Tyrosine-protein phosphatase non-receptor type 7 (Homo sapiens, UniProt P35236); format: functional
T2 sequence (P35236 whole entry): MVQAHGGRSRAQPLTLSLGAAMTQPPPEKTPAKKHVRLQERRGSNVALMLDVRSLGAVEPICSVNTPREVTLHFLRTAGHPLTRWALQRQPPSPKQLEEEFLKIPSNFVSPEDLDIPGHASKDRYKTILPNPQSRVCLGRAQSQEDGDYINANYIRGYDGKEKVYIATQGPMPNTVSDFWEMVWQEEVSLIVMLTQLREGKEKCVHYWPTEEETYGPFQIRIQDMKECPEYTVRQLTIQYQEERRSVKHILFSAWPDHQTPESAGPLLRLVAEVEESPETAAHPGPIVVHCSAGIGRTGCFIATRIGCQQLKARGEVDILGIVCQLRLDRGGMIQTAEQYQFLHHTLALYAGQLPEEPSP

[8] = molecular target: T3, Tyrosine-protein phosphatase non-receptor type 22 (Homo sapiens, UniProt Q9Y2R2); format: functional
T3 sequence (Q9Y2R2 whole entry): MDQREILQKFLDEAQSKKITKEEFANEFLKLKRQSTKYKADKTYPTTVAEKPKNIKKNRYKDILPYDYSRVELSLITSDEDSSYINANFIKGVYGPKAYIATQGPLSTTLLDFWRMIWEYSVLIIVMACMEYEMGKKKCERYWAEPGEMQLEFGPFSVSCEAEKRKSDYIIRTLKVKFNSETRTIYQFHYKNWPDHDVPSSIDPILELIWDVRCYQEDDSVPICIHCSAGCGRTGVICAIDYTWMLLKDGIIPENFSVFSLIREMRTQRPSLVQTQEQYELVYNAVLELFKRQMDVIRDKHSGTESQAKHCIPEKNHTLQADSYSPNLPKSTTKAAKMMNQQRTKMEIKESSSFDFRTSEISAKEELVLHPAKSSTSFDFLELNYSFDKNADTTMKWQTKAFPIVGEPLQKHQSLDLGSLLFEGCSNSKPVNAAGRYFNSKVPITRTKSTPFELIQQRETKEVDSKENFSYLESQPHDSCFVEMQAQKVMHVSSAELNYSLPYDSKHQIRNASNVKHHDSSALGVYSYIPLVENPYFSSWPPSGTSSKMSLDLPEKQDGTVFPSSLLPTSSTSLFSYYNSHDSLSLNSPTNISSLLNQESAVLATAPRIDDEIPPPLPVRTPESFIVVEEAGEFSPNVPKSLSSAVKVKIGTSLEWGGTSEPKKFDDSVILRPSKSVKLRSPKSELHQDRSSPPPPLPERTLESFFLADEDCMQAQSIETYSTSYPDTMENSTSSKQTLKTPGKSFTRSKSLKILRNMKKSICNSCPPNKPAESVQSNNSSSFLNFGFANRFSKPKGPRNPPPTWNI

[9] = molecular target: T3, Tyrosine-protein phosphatase non-receptor type 22; format: functional; remark: listed apart in the source
[10] = insulin promoter down-regulators in MIN6 cells, imaging, high-content screening, mouse beta cells (AID 1628); format: functional
[11] = system: Streptococcus sp. 'group A'; experiment: growth inhibition of control SK(-) GAS strain, dose response, counter-screen for streptokinase expression inhibitor project, luminescence, kanamycin, BacTiterGlo, confirmation (AID 1900); format: functional, organism-based
[12] = cytotoxicity in MIN6 insulinoma cells, dose response, cytotoxicity control, cell-based, mouse insulinoma (AID 2122); format: functional;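 further: confirmatory high-throughput counterscreen run to flag cytotoxic compounds; mouse MIN-6 beta cells carrying an insulin promoter eGFP reporter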
Streptococcus = experiment: Group A Streptococcus viability loss, dose response, counter-screen for streptokinase expression inhibitor project, luminescence, BacTiterGlo (AID 1915); format: functional, organism-based;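 further: potency for reduction of bacterial viability or growth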
[13] = Luminescence Cell-Based Dose Retest to Confirm Inhibitors of Cancer Stem Cells. [Related pubchem assays (depositor defined):AID2717, AID2721]; format: functional; details: Homo sapiens
HEK293 [14] = experiment: inhibitors of LMP1-driven NF-kB reporter, dose response, cell-based, HEK293, luciferase, cherry-pick (AID 588343); format: functional; details: Homo sapiens
Vero [15] = experiment: cells; format: functional, cell-based; details: Chlorocebus sabaeus
INS1 = experiment: beta cell apoptosis inhibitors, cytokine rescue, dose response, luminescence, retest (AID 449756); format: functional, cell-based; details: Rattus norvegicus, INS1;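 further: cell death triggered by IL-1 beta plus TNF-alpha plus IFN-gamma mixture; protective hits raise ATP signal compared with cytokine alone wells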
Vero [16] = experiment: cells; format: functional; details: Chlorocebus sabaeus
HEK293 [17] = experiment: cells; details: Homo sapiens
HEK293 [18] = experiment: cells; details: Homo sapiens; remark: listed apart in the source

For `Oc1[nH]c2ccc(Br)cc2c1N=Nc1ccc(F)cc1`, the EC50 [1] was > 99 µM (inactive), the AC50 [2] was 91.6 µM (active) and the EC50 [3] was 45.8 µM (inactive).

With `O=C1NC(=O)C(=Cc2ccc(Sc3ccccc3)o2)C(=O)N1` the IC50 [4] was 369 µM (active), the EC50 [5] was 11.2 µM (active) and the AC50 [6] was 10.6 µM (active). For the same compound, the IC50 (Genome polyprotein) was > 100 µM (active).

For `Cc1ccc(-n2c(=O)c3sccc3n(CC(=O)NCC3CCCO3)c2=O)cc1F` (stereo unspecified), the IC50 [7] was > 79.4 µM (inactive), the IC50 [8] was > 79.4 µM (inactive) and the IC50 [9] was > 79.4 µM (inactive).

For `COc1ccc(O)c(/C=N/Nc2nc(Nc3ccccc3)nc(-n3nc(C)cc3C)n2)c1`, the IC50 [10] was 1.67 µM (active), the EC50 [11] was 1.07 µM (active) and the IC50 [12] was 0.878 µM (active). For the same compound, the EC50 (Streptococcus) was 2.16 µM (active), the AC50 [13] was 4.75 µM (active) and the AC50 (HEK293 [14]) was 10.7 µM (active). For the same compound, the IC50 (Vero [15]) was > 12.5 µM (active), the AC50 (INS1) was 1.01 µM (active) and the CC50 (Vero [16]) was 11.8 µM (active). The EC50 (HEK293 [17]) was > 59.6 µM (inactive) and the EC50 (HEK293 [18]) was > 59.6 µM (inactive).
